From article PMC4236622 (Cancer Chemotherapy and Pharmacology, 2014)

Tests used:
[1] = test system: HT29 colon tumor; assay: Activity in HT29 colon tumor xenograft model; assay type: in vivo, mouse; details: for Median TTE: endpoint 1,000 mm3; for Survivors not reaching tumor endpoint: endpoint 1,000 mm3 or Day 73; for Tumor regression, Complete / Tumor regression, Partial: HT29 colon tumor model, animals/group
Source text: (§1) Tumor volume was estimated as described above.
(§2) Studies were terminated on Days 59 (HT29), 61 (NCI-H460), 72 (MCF-7), 60 (A2780, q7dx3), 76 (A2780 qdx1), and 84 (NCI-N87).
(§3) Kaplan–Meier plots were constructed to show the percentage of animals remaining in the study to perform the logrank test. Median tumor growth curves show group median tumor volumes as a function of time. When an animal exited the study due to tumor size, the final tumor volume recorded for the animal was included with the data used to calculate the group median tumor volume at subsequent time points.

[2] = test system: NCI-H460 lung tumor; assay: Activity in NCI-H460 lung tumor xenograft model; assay type: in vivo, mouse; details: for Median TTE: endpoint 1,500 mm3; for Survivors not reaching tumor endpoint: endpoint 1,500 mm3 or Day 57; for Tumor regression, Complete / Tumor regression, Partial: NCI-H460 lung tumor model, animals/group
Source text: as §1, §2, §3

[3] = test system: MCF-7 breast tumor; assay: Activity in MCF-7 breast tumor xenograft model; assay type: in vivo, mouse
Source text: as §1, §2, §3

[4] = test system: NCI-N87 gastric tumor; assay: Activity in NCI-N87 gastric tumor xenograft model; assay type: in vivo, mouse
Source text: as §1, §2, §3

[5] = test system: A2780 ovarian tumor; assay: Activity in A2780 ovarian tumor xenograft model; assay type: in vivo, mouse
Source text: as §1, §2, §3

[6] = Plasma and tumor pharmacokinetics in tumor-bearing mice (HT29 and NCI-H460, model not distinguished); details: after conventional irinotecan 40 mg/kg iv Days 0, 4, 8
Description: (§4) The length and width of each tumor was recorded 2–3 times a week, and the corresponding tumor volume was estimated using the formula L × W ^2/2 = mm^3, where L and W refer to the larger and smaller perpendicular tumor dimensions, respectively. Animals found moribund or with tumors ≥4,000 mm^3, ulcerated, or sloughed off were euthanized prior to scheduled termination. […] Plasma was harvested, frozen on dry ice, and stored at −80 °C until assayed. Immediately following blood collection, animals were euthanized, and the tumors were excised, frozen in liquid nitrogen, and stored at −80 °C until assayed.

[7] = Tolerability in mouse xenograft studies (body weight, mortality); assay type: in vivo; details: all doses, all xenograft models
Source text: as §1

[8] = humans, cited from earlier work; for time post-dose at which concentrations fall below 0.1 ng/mL: following irinotecan infusion (350 mg/m2 every 21 days), reference not given
[9] = mice; no reference given; cited from earlier work
[10] = test system: HT29 colon tumor; assay: Tumor PK/PD study in HT29 tumor-bearing mice (tumor volume, inhibitory Emax model); assay type: in vivo, mouse; details: Emax fixed at 1
Description: as §4
(§5) Inhibitory E max response PK/PD models based on the Gompertz equation [32] were developed for both tumor types to represent the rate of tumor growth as a function of tumor SN38 concentration. A schematic diagram of the PK/PD model is shown in Online Resource 1. […] The PD parameter values k gr (tumor intrinsic growth rate; day^−1), Limit (limit of tumor growth), and EC 50 (half-maximal effective inhibitory concentrations; μg/g) were optimized using Runge–Kutta 4 integration and the multiple-fit curve fitting module of Berkeley Madonna.

[11] = test system: NCI-H460 lung tumor; assay: Tumor PK/PD study in NCI-H460 tumor-bearing mice (tumor volume, inhibitory Emax model); assay type: in vivo, mouse; details: Emax fixed at 1
Description: as §4, §5

[12] = design: method as in PMID 1651156; details: cited from earlier work
[13] = Pharmacokinetics across nonclinical species (mouse, rat, dog); details: rats and dogs, after conventional irinotecan
Description: Blood samples were collected via a peripheral vein into blood collection tubes containing 1/20th the plasma volume of a dimethyl sulfoxide solution containing 50 mM phenylmethyl sulfonyl fluoride and 1 % acetic acid (v/v). Plasma was harvested by centrifugation at 2,100×g for 20 min at 4 °C. Plasma was further stabilized by addition of 1 % acetic acid and stored at −80 °C until assayed.
Tumor tissue samples were homogenized in a 9× volume of homogenization buffer (containing sodium fluoride, phenylmethyl sulfonyl fluoride, and sodium dodecyl sulfate) prior to extraction of analytes. SN38 from tumor homogenate was extracted using protein precipitation with acetonitrile and quantified by LC–MS/MS using SN38 calibration standards. LC–MS/MS used a Synergy Hydro, 3 µm, 50 × 2.0-mm column, operated at 50 °C, at a flow rate of 0.4 mL/min with a gradient consisting of 0.1 % formic acid in water and 0.1 % formic acid in acetonitrile, coupled to an API 4000 (Applied Biosystems). […] The predicted mouse and measured rat and dog concentration–time profiles were analyzed with noncompartmental methods within WinNonlin (Professional version 5.2; Pharsight Corporation, Mountain View, CA) to estimate customary PK parameters.

[14] = MCF-7 breast tumor model, 40 mg/kg Q4dx3 iv, animals/group
[15] = NCI-N87 gastric tumor model, 60 mg/kg Q7dx3 iv, animals/group
[16] = A2780 ovarian tumor model, 100 mg/kg Q7dx3 iv, animals/group

Compound: CCc1c2c(nc3ccc(OC(=O)N4CCC(N5CCCCC5)CC4)cc13)-c1cc3c(c(=O)n1C2)COC(=O)[C@]3(O)CC [Irinotecan]
- TGD ([1]; HT29, 40 mg/kg Q4dx3 iv): 10 days
- Median TTE ([1]; HT29, 40 mg/kg Q4dx3 iv): 26 days
- Survivors not reaching tumor endpoint ([1]; HT29, 40 mg/kg Q4dx3 iv): 0/10
- TGD ([1]; HT29, 90 mg/kg Q4dx3 iv): 11 days
- Median TTE ([1]; HT29, 90 mg/kg Q4dx3 iv): 27 days
- Survivors not reaching tumor endpoint ([1]; HT29, 90 mg/kg Q4dx3 iv): 0/10
- regression responses (animals) ([1]; HT29, Q4dx3): no tumor regression
- Tumor regression, Complete ([1]; 40 mg/kg Q4dx3 iv): 0/10
- Tumor regression, Partial ([1]; 40 mg/kg Q4dx3 iv): 0/10
- Tumor regression, Complete ([1]; 90 mg/kg Q4dx3 iv): 0/10
- Tumor regression, Partial ([1]; 90 mg/kg Q4dx3 iv): 0/10
- regression responses (animals) ([2]; H460, Q4dx3): no tumor regression
- TGD ([2]; NCI-H460, 40 mg/kg Q4dx3 iv): 11 days
- Median TTE ([2]; NCI-H460, 40 mg/kg Q4dx3 iv): 23 days
- Survivors not reaching tumor endpoint ([2]; NCI-H460, 40 mg/kg Q4dx3 iv): 0/10
- TGD ([2]; NCI-H460, 90 mg/kg Q4dx3 iv): 12 days
- Median TTE ([2]; NCI-H460, 90 mg/kg Q4dx3 iv): 24 days
- Survivors not reaching tumor endpoint ([2]; NCI-H460, 90 mg/kg Q4dx3 iv): 0/10
- Tumor regression, Complete ([2]; 40 mg/kg Q4dx3 iv): 0/10
- Tumor regression, Partial ([2]; 40 mg/kg Q4dx3 iv): 0/10
- Tumor regression, Complete ([2]; 90 mg/kg Q4dx3 iv): 0/10
- Tumor regression, Partial ([2]; 90 mg/kg Q4dx3 iv): 0/10
- TGD ([3]; MCF-7, 40 mg/kg Q4dx3 iv): 22 days
- Median TTE ([3]; MCF-7, 40 mg/kg Q4dx3 iv, endpoint 700 mm3): 59 days
- Survivors not reaching tumor endpoint ([3]; MCF-7, 40 mg/kg Q4dx3 iv, endpoint 700 mm3 or Day 73): 2/10
- regression responses / regression rate (animals) ([3]; MCF-7, Q4dx3): ≤ 30%
- Tumor regression, Complete [3, 14]: 3/10
- Tumor regression, Partial [3, 14]: 0/10
- TGD ([4]; NCI-N87, 60 mg/kg Q7dx3 iv): 12 days
- Median TTE ([4]; NCI-N87, 60 mg/kg Q7dx3 iv, endpoint 800 mm3): 30 days
- Survivors not reaching tumor endpoint ([4]; NCI-N87, 60 mg/kg Q7dx3 iv, endpoint 800 mm3 or Day 84): 0/10
- Tumor regression, Complete [4, 15]: 0/10
- Tumor regression, Partial [4, 15]: 0/10
- TGD ([5]; A2780, 100 mg/kg Q7dx3 iv): 15 days
- Median TTE ([5]; A2780, 100 mg/kg Q7dx3 iv, endpoint 2,000 mm3): 29 days
- Survivors not reaching tumor endpoint ([5]; A2780, 100 mg/kg Q7dx3 iv, endpoint 2,000 mm3 or Day 60): 0/10
- Tumor regression, Complete [5, 16]: 0/10
- Tumor regression, Partial [5, 16]: 0/10
- plasma irinotecan AUC [6]: 1.2 µg·days/mL
- tumor irinotecan AUC [6]: 4.2 µg·days/g
- maximum body weight loss [7]: ≤ 16%
- treatment-related deaths [7]: no treatment-related deaths
- time post-dose at which concentrations fall below 0.1 ng/mL [8]: 5 to 7 days
- single-dose LD10 [9]: ~ 120 mg/kg

Compound: CCc1c2c(nc3ccc(O)cc13)-c1cc3c(c(=O)n1C2)COC(=O)[C@]3(O)CC [SN38, 10-hydroxy-7-ethyl camptothecin]
- EC50 (half-maximal effective inhibitory tumor SN38 concentration) [10]: 0.20 µg/g
- EC50 (half-maximal effective inhibitory tumor SN38 concentration) [11]: 1.2 µg/g
- cytotoxicity in vitro, potency compared with irinotecan [12]: 100- to 1,000 fold
- t1/2 of SN38 ([8]; conventional irinotecan): 24 to 47 h
- time post-dose at which concentrations fall below 0.1 ng/mL [8]: 5 to 7 days
- time post-dose at which plasma SN38 was undetectable [13]: 24 h
